Assay results from US11384099B2, “Pyrazolopyridinone compounds” (Janssen Pharmaceutica NV, priority 2017, dated 2022).

How the values were obtained:
[1] = tested on: NIH/3T3 cells transfected with control vector (MOCK); test: NIH/3T3 mock cell proliferation assay (CTG, counter assay); type: cell-based; conditions: Mus musculus, NIH3T3; 72-hr incubation, CellTiter Glo; counter assay for general toxicity
Method: NIH/3T3 Mock Cell Proliferation Assay
(§1) In day 1, 90 μL of cell suspension (NIH/3T3 cells transfected with the same control vector as in the above two proliferation assays) (total 30,000 cells per well in growth medium (DMEM containing 1% Glutamax, 10% FBS and 1% Pen/Strep)) was seeded in a 96-well plate and then incubated overnight at 37° C. and 5% CO2. In day 2, 10 μL of growth medium containing 10-fold stock solution of testing compound was added into cell cultures (9 dose points with 3× serial dilution, starting with 30 μM, 0.3% DMSO final). After 72-hr incubation at 37° C. and 5% CO2, in day 5 a volume of 50 μL CellTiter Glo (CTG) reagent was added into cell-containing 96-well plate and the plate was incubated at room temperature for 10 minutes before RLUs (relative light unit) were measured on a microplate reader with luminescence detection module. The RLU value was normalized to survival % and concentration-response curve was plotted using Prism to calculate IC50 (M), pIC50 (−log IC50) and HillSlope value.

[2] = tested on: NIH/3T3 cells overexpressing FGFR3 WT-TACC3 fusion protein; test: NIH/3T3 FGFR3 WT-TACC3 cellular phospho-ERK assay (in vitro PD assay); type: cell-based; conditions: Mus musculus, NIH3T3; 1-hr incubation, AlphaLISA SureFire Ultra p-ERK1/2; read-out: NIH/3T3 FGFR3 WT-TACC3 pERK (IC50)
Method: NIH/3T3 FGFR3 WT-TACC3 Cellular Phospho-ERK Assay (In Vitro PD Assay)
(§2) 50 uL of cell suspension (NIH/3T3 cells overexpressing FGFR3 WT-TACC3 fusion protein) (total 10,000 cells per well in growth medium (DMEM containing 1% Glutamax, 10% FBS and 1% Pen/Strep)) was seeded in a 384-well plate. After overnight incubation at 37° C. and 5% CO2, 5.5 μL of growth medium containing 10× testing compound was added into cell cultures (10 dose points with 4× serial dilution, starting with 10 μM, 0.1% DMSO final). After 1-hr incubation at 37° C. and 5% CO2, the medium was depleted and AlphaLISA SureFire Ultra p-ERK1/2 (Thr202/Tyr204) Assay Kit (from PerkinElmer) was applied for phospho-ERK level detection according to the kit instructions. The RFUs (relative fluorescence units were measured on EnVision microplate reader (ex. 680 nm, em. 615 nm) and concentration-response curve was plotted using Prism to calculate IC50 (M), pIC50 (−log IC50) and HillSlope value.

[3] = tested on: NIH/3T3 cells overexpressing FGFR3 V555M-TACC3 fusion protein; test: NIH/3T3 FGFR3 V555M-TACC3 cellular phospho-ERK assay (in vitro PD assay); type: cell-based; conditions: Mus musculus, NIH3T3; 1-hr incubation, AlphaLISA SureFire Ultra p-ERK1/2; read-out: NIH/3T3 FGFR3 V555M-TACC3 pERK (IC50)
Method: NIH/3T3 FGFR3 V555M-TACC3 Cellular Phospho-ERK Assay (In Vitro PD Assay)
as §2, with “μL” for “uL”, “V555M-TACC3” for “WT-TACC3”

[4] = target: T1, human FGFR3 wild type enzyme (cytoplasmic domain) (Homo sapiens, UniProt P22607); test: FGFR3 wild type mobility shift assay (enzymatic assay, Caliper); type: biochemical; conditions: 75 μM ATP, 50 minutes at 30° C.
T1 construct: human FGFR3 wild type enzyme (cytoplasmic domain, from Cama Biosciences); purchased Carna Biosciences
Method: FGFR3 Wild Type Mobility Shift Assay (Enzymatic Assay)
(§3) In a final reaction volume of 25 μL, 0.04 ng/μL human FGFR3 wild type enzyme (cytoplasmic domain, from Cama Biosciences) was incubated with 75 μM ATP, 1 μM FL-peptide 30 substrate and 250 nL of testing compound (1% DMSO final) in assay buffer (100 mM HEPES pH 7.4, 10 mM MgCl2, 0.003% Brij35, 1 mM DTT). After incubation for 50 minutes at 30° C. the reaction was stopped with 10 μL of 0.5M EDTA pH 8.0, and then L of reaction mixture was transferred to reading plate and measured on Caliper EZ reader II.

[5] = target: T2, human FGFR3 V555M enzyme (cytoplasmic domain carrying V555M mutation) (Homo sapiens, UniProt P22607, V555M); test: FGFR3 V555M mobility shift assay (enzymatic assay, Caliper); type: biochemical; conditions: 30 μM ATP, 45 minutes at 30° C.
T2 construct: cytoplasmic domain carrying V555M mutation, from Carna Biosciences; purchased Carna Biosciences
Method: FGFR3 V555M Mobility Shift Assay (Enzymatic Assay)
as §3, with “FGFR3 V555M” for “FGFR3 wild type”, “(cytoplasmic domain carrying V555M mutation,” for “(cytoplasmic domain,”, “from Carna” for “from Cama”, “with 30” for “with 75”, “for 45” for “for 50”

[6] = target: T3, NIH/3T3 cells overexpressing FGFR3 WT-TACC3 fusion protein (Homo sapiens, UniProt P22607); test: NIH/3T3 FGFR3 WT-TACC3 cell proliferation assay (CTG); type: cell-based; conditions: 72-hr incubation, CellTiter Glo; read-out: NIH/3T3 FGFR3 WT-TACC3 CTG (IC50)
T3 construct: NIH/3T3 FGFR3 WT-TACC3 CTG (IC50); other: 72-hr incubation, CellTiter Glo; fused on or other part: C-terminal coiled-coil part of TACC3 (part of the key, as a fusion known from patients); Q9Y6A5 (Transforming acidic coiled-coil-containing protein 3)
Method: NIH/3T3 FGFR3 WT-TACC3 Cell Proliferation Assay
as §1, with “cells overexpressing FGFR3 WT-TACC3 fusion protein)” for “cells transfected with the same control vector as in the above two proliferation assays)”, “with 4×” for “with 3×”, “with 10” for “with 30”, “μM, 0.1%” for “μM, 0.3%”

T2 sequence (P22607 397-806 V555M limits assumed): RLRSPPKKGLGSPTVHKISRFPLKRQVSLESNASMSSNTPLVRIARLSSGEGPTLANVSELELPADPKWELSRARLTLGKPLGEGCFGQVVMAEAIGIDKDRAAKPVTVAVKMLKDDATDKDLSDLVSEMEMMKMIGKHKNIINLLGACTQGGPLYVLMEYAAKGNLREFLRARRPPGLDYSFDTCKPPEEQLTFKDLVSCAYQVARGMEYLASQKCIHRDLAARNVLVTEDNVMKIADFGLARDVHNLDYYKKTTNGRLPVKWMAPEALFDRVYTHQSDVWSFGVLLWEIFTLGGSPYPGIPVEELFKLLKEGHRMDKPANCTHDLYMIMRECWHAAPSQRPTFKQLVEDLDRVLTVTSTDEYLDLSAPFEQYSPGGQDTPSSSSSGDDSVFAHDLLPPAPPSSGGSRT
T1 sequence (P22607 397-806 limits assumed): as the sequence (P22607 397-806 V555M limits assumed) above, with M159V counted along it
T3 sequence (P22607 whole entry, change not shown, the tested form may be a part): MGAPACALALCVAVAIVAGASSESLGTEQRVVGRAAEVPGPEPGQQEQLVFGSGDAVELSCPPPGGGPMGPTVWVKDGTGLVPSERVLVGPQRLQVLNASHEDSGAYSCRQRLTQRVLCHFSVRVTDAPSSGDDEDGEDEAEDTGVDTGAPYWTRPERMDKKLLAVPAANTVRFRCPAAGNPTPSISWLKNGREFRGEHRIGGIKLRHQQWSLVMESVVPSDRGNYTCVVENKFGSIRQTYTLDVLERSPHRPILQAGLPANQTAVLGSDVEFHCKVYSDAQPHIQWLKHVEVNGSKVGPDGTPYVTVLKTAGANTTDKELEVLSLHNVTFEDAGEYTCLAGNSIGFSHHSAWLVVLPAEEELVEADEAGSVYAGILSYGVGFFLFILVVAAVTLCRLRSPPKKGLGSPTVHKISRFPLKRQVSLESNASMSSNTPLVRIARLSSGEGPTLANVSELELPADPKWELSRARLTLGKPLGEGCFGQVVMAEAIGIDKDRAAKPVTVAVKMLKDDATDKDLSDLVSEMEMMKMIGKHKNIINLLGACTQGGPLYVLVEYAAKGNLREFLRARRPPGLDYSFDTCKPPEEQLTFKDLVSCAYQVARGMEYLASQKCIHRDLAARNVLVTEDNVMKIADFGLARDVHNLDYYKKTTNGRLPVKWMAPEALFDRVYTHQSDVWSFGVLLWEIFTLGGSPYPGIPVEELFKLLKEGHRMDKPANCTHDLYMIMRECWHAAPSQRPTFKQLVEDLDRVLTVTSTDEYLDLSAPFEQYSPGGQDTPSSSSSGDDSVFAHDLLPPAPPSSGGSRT

Row | IC50 [4] | IC50 [5] | GI50 [6] | SMILES | IC50 [1] | IC50 [2] | IC50 [3]
1 |  |  |  | COc1ccc2nc(-c3c(N[C@@H](C)c4ncccn4)c4nn(C)cc4[nH]c3=O)[nH]c2c1 (single isomer, unassigned) [Compound 1, (S*)-6-(6-Methoxy-1H-benzo[d]imidazol-2-yl)-2-methyl-7-((1-(pyrimidin-2-yl)ethyl)-amino)-2H-pyrazolo[4,3-b]pyridin-5 (4H)-one] | 987 nM | 3.2 nM | 3.05 nM
2 | 2.16 nM | 0.407 nM | 12.5 nM | CCC(Nc1c(-c2nc3cc(OC)c(OC)cc3[nH]2)c(=O)[nH]c2cn(C)nc12)c1ncccn1 (single isomer, unassigned) [Compound 42, (S*)-6-(5,6-dimethoxy-1H-benzo[d]imidazol-2-yl)-2-methyl-7-((1-(pyrimidin-2-yl)-propyl)amino)-2H-pyrazolo[4,3-b]pyridin-5 (4H)-one] | 591 nM |  | 
3 | 0.327 nM | 0.183 nM |  | CCOc1cc2[nH]c(-c3c(N[C@@H](C)c4ncccn4)c4nn(C)cc4[nH]c3=O)nc2cc1OC [Compound 7, (S)-6-(6-ethoxy-5-methoxy-1H-benzo[d]imidazol-2-yl)-2-methyl-7-((1-(pyrimidin-2-yl)ethyl)amino)-2,4-dihydro-5H-pyrazolo[4,3-b]pyridin-5-one] | 713 nM | 3.64 nM | 2.79 nM
4 | 2.15 nM | 0.595 nM | 23.3 nM | C[C@H](Nc1c(-c2nc3ccc(F)cc3[nH]2)c(=O)[nH]c2cn(C)nc12)c1ncccn1 [Compound 28, (S)-6-(6-Fluoro-1H-benzo[d]imidazol-2-yl)-2-methyl-7-((1-(pyrimidin-2-yl)ethyl)amino)-2H-pyrazolo[4,3-b]pyridin-5 (4H)-one] | 2030 nM |  | 
5 | 6.21 nM | 1.78 nM | 34.4 nM | CCn1cc2[nH]c(=O)c(-c3nc4c(OC)cc(OC)cc4[nH]3)c(N[C@@H](C)c3ncccn3)c2n1 [Compound 31, (S)-6-(4,6-dimethoxy-1H-benzo[d]imidazol-2-yl)-2-ethyl-7-((1-(pyrimidin-2-yl)ethyl)-amino)-2H-pyrazolo[4,3-b]pyridin-5 (4H)-one] | 1940 nM |  | 
6 | 0.98 nM | 0.568 nM | 18.4 nM | CCn1cc2[nH]c(=O)c(-c3nc4cc(OC)c(OCCOC)cc4[nH]3)c(N[C@@H](C)c3ncccn3)c2n1 [Compound 38, (S)-2-ethyl-6-(5-methoxy-6-(2-methoxyethoxy)-1H-benzo[d]imidazol-2-yl)-7-((1-(pyrimidin-2-yl)ethyl)amino)-2H-pyrazolo[4,3-b]pyridin-5 (4H)-one] | 532 nM |  | 
7 | 2.96 nM | 0.576 nM |  | CCOc1ccc2nc(-c3c(N[C@@H](C)c4ncccn4)c4nn(CC)cc4[nH]c3=O)[nH]c2c1 [Compound 50, (S)-6-(6-ethoxy-1H-benzo[d]imidazol-2-yl)-2-ethyl-7-((1-(pyrimidin-2-yl)ethyl)amino)-2,4-dihydro-5H-pyrazolo[4,3-b]pyridin-5-one] | 1100 nM |  | 
8 | 4.43 nM | 0.613 nM | 30.2 nM | CCn1cc2[nH]c(=O)c(-c3nc4cc(OC)c(OC)cc4[nH]3)c(N[C@@H](C)c3ccccn3)c2n1 [Compound 51, (S)-6-(5,6-dimethoxy-1H-benzo[d]imidazol-2-yl)-2-ethyl-7-((1-(pyridin-2-yl)ethyl)-amino)-2,4-dihydro-5H-pyrazolo[4,3-b]pyridin-5-one] | 1130 nM |  | 
9 | 0.853 nM | 0.281 nM |  | CCOc1cc2nc(-c3c(N[C@@H](C)c4ncccn4)c4nn(CC)cc4[nH]c3=O)[nH]c2cc1OCC [Compound 52, (S)-6-(5,6-diethoxy-1H-benzo[d]imidazol-2-yl)-2-ethyl-7-((1-(pyrimidin-2-yl)ethyl)-amino)-2H-pyrazolo[4,3-b]pyridin-5 (4H)-one] | 653 nM | 5.66 nM | 6.67 nM
10 | 0.554 nM | 0.298 nM |  | CCOc1cc2nc(-c3c(N[C@@H](C)c4ncccn4)c4nn(C)cc4[nH]c3=O)[nH]c2cc1OCC [Compound 53, (S)-6-(5,6-diethoxy-1H-benzo[d]imidazol-2-yl)-2-methyl-7-((1-(pyrimidin-2-yl)ethyl)-amino)-2,4-dihydro-5H-pyrazolo[4,3-b]pyridin-5-one] | 535 nM |  | 
11 | 1.64 nM | 0.562 nM |  | CCn1cc2[nH]c(=O)c(-c3nc4ccc(OCCOC)cc4[nH]3)c(N[C@@H](C)c3ncccn3)c2n1 [Compound 54, (S)-2-ethyl-6-(6-(2-methoxyethoxy)-1H-benzo[d]imidazol-2-yl)-7-((1-(pyrimidin-2-yl)-ethyl)amino)-2H-pyrazolo[4,3-b]pyridin-5 (4H)-one] | 689 nM |  | 
12 | 1.56 nM | 0.296 nM |  | COc1cc2nc(-c3c(N[C@@H](C)c4ccccn4)c4nn(C)cc4[nH]c3=O)[nH]c2cc1OC [Compound 56, (S)-6-(5,6-dimethoxy-1H-benzo[d]imidazol-2-yl)-2-methyl-7-((1-(pyridin-2-yl)ethyl)-amino)-2H-pyrazolo[4,3-b]pyridin-5 (4H)-one] | 857 nM | 7.92 nM | 5.16 nM
